Data published in patent US7514432B2, “Compounds and methods of treating cell proliferative diseases, retinopathies and arthritis” (Exonhit Therapeutics SA, priority 2003, dated 2009).

Test system: quiescent Swiss 3T3 cells
Assay: Compounds' effect on the actin cytoskeleton (Rac-induced ruffles)
Type: cell-based
Conditions: 30 min pre-treatment, subtoxic doses; osmotic shock 10 min (50% H2O)
Method: FIG. 1: Study of compounds effect on the actin cytoskeleton. Quiescent Swiss 3T3 cells were treated for 30 minutes with various concentrations of the compounds and were then submitted to osmotic shock by 10 min. incubation in a medium containing 50% H2O. Cells were subsequently fixed, permeabilized and labeled with Phalloidin TRITC. 100 to 200 cells were counted under a microscope, and the percentage of cells displaying lamellipodia and ruffles was evaluated.
Quiescence of Swiss 3T3 cells: Cells are seeded at high density on coverslips in 5% FCS medium (special weak FCS). When cells become quiescent (after 6-10 days of culture), the medium is removed (a few microliters remaining in the well) and replaced with serum free medium. Cells are placed in the incubator overnight. […]
Immunofluorescence • Fixation and permeabilization: Medium is aspirated from the culture wells and replaced with fixation buffer (BRB80: 80 mM KPipes pH 6.8, 2 mM MgCl2, 5 mM EGTA, 0.3% paraformaldehyde). […] Mounting is allowed to dry at 37° C. for 1 h. • Quantification of the effect of the compounds: The total number of cells is counted under the microscope (at least three different fields, e.g. between 100 and 200 cells). The number of cells bearing the morphological features of interest is evaluated. The percentage of cells bearing the morphological features of interest is then calculated.

Cl.Cl.O=c1cc(CN2CCOCC2)occ1OCCCCCSc1ccnc2cc(C(F)(F)F)ccc12 [EHT 1864, 5-(5-(7-(Trifluoromethyl)quinolin-4-ylthio)pentyloxy)-2-(morpholinomethyl)-4H-pyran-4-one dihydrochloride]
formation of ruffles induced by Rac after osmotic shock: dose-dependently prevents formation of ruffles

CN1CCN(Cc2cc(=O)c(OCCCCCSc3ccnc4cc(C(F)(F)F)ccc34)co2)CC1.Cl.Cl.Cl [EHT 9241, 5-(5-(7-(Trifluoromethyl)quinolin-4-ylthio)pentyloxy)-2-((4-methylpiperazin-1-yl)methyl)-4H-pyran-4-one trihydrochloride]
formation of ruffles induced by Rac after osmotic shock: dose-dependently prevents formation of ruffles
